Tested on: 422866-222-R5-J1-PDC complex spheroid viability
Experiment: Anticancer human tumor 422866-222-R5-J1-PDC patient-derived pancreatic adenocarcinoma cell line growth inhibition [POLQ]
Details: for IC50: curve of first compound; for viability, T/C: stronger effect = lower value
In short: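 Three-cell-type spheroids modelling solid tumor plus stroma served as the readout system; POL inhibitors were tested individually and in combination, concentration ranges set by clinical Cmax where known.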

[1] = second compound 0.0316 µM, first compound 0.0316 µM
[2] = second compound 0.0316 µM, first compound 0.1 µM
[3] = second compound 0.0316 µM, first compound 0.316 µM
[4] = second compound 0.0316 µM, first compound 1 µM
[5] = second compound 0.1 µM, first compound 0.0316 µM
[6] = second compound 0.1 µM, first compound 0.1 µM
[7] = second compound 0.1 µM, first compound 0.316 µM
[8] = second compound 0.1 µM, first compound 1 µM
[9] = second compound 0.316 µM, first compound 0.0316 µM
[10] = second compound 0.316 µM, first compound 0.1 µM
[11] = second compound 0.316 µM, first compound 0.316 µM
[12] = second compound 0.316 µM, first compound 1 µM
[13] = second compound 1 µM, first compound 0.0316 µM
[14] = second compound 1 µM, first compound 0.1 µM
[15] = second compound 1 µM, first compound 0.316 µM
[16] = second compound 1 µM, first compound 1 µM
[17] = second compound 3.16 µM, first compound 0.0316 µM
[18] = second compound 3.16 µM, first compound 0.1 µM
[19] = second compound 3.16 µM, first compound 0.316 µM
[20] = second compound 3.16 µM, first compound 1 µM
[21] = second compound 10 µM, first compound 0.0316 µM
[22] = second compound 10 µM, first compound 0.1 µM
[23] = second compound 10 µM, first compound 0.316 µM
[24] = second compound 10 µM, first compound 1 µM
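Also: spheroids exposed to compounds for one week before readout.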
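For viability, T/C in this document: percent of DMSO vehicle wells luminescence so 100% = untreated viability.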

C=CCn1c(=O)c2cnc(Nc3ccc(N4CCN(C)CC4)cc3)nc2n1-c1cccc(C(C)(C)O)n1 + Nc1ccc(C#CCN(C(=O)Cc2ncc(C(F)(F)F)cc2C(F)(F)F)c2ccc(F)cc2)nn1
IC50 (second compound 0.0316 µM): 290 nM
IC50 (second compound 0.1 µM): 270 nM
IC50 (second compound 0.316 µM): 252 nM
IC50 (second compound 1 µM): 311 nM
IC50 (second compound 3.16 µM): 251 nM
IC50 (second compound 10 µM): 257 nM
viability, T/C (second compound 0.0316 µM, first compound 0.00316 µM): 88%
viability, T/C (second compound 0.0316 µM, first compound 0.01 µM): 96.6%
viability, T/C [1]: 92.1%
viability, T/C [2]: 79.7%
viability, T/C [3]: 47.8%
viability, T/C [4]: 33.7%
viability, T/C (second compound 0.1 µM, first compound 0.00316 µM): 98%
viability, T/C (second compound 0.1 µM, first compound 0.01 µM): 102%
viability, T/C [5]: 98.2%
viability, T/C [6]: 80.8%
viability, T/C [7]: 45.2%
viability, T/C [8]: 32.8%
viability, T/C (second compound 0.316 µM, first compound 0.00316 µM): 97%
viability, T/C (second compound 0.316 µM, first compound 0.01 µM): 89.7%
viability, T/C [9]: 99.7%
viability, T/C [10]: 71.9%
viability, T/C [11]: 46.5%
viability, T/C [12]: 34.6%
viability, T/C (second compound 1 µM, first compound 0.00316 µM): 97.6%
viability, T/C (second compound 1 µM, first compound 0.01 µM): 91.4%
viability, T/C [13]: 115%
viability, T/C [14]: 76.2%
viability, T/C [15]: 53.5%
viability, T/C [16]: 34.3%
viability, T/C (second compound 3.16 µM, first compound 0.00316 µM): 78.1%
viability, T/C (second compound 3.16 µM, first compound 0.01 µM): 97.1%
viability, T/C [17]: 128%
viability, T/C [18]: 69.5%
viability, T/C [19]: 53.6%
viability, T/C [20]: 36.6%
viability, T/C (second compound 10 µM, first compound 0.00316 µM): 106%
viability, T/C (second compound 10 µM, first compound 0.01 µM): 104%
viability, T/C [21]: 103%
viability, T/C [22]: 78.7%
viability, T/C [23]: 44%
viability, T/C [24]: 35.7%

CCCS(=O)(=O)Nc1ccc(F)c(C(=O)c2c[nH]c3ncc(-c4ccc(Cl)cc4)cc23)c1F + Nc1ccc(C#CCN(C(=O)Cc2ncc(C(F)(F)F)cc2C(F)(F)F)c2ccc(F)cc2)nn1
IC50 (second compound 0.0316 µM): > 10000 nM
IC50 (second compound 0.1 µM): > 10000 nM
IC50 (second compound 0.316 µM): > 10000 nM
IC50 (second compound 1 µM): > 10000 nM
IC50 (second compound 3.16 µM): > 10000 nM
IC50 (second compound 10 µM): > 10000 nM
viability, T/C [1]: 101%
viability, T/C [2]: 103%
viability, T/C [3]: 107%
viability, T/C [4]: 181%
viability, T/C (second compound 0.0316 µM, first compound 3.16 µM): 197%
viability, T/C (second compound 0.0316 µM, first compound 10 µM): 118%
viability, T/C [5]: 115%
viability, T/C [6]: 107%
viability, T/C [7]: 115%
viability, T/C [8]: 182%
viability, T/C (second compound 0.1 µM, first compound 3.16 µM): 173%
viability, T/C (second compound 0.1 µM, first compound 10 µM): 118%
viability, T/C [9]: 105%
viability, T/C [10]: 96.4%
viability, T/C [11]: 113%
viability, T/C [12]: 162%
viability, T/C (second compound 0.316 µM, first compound 3.16 µM): 164%
viability, T/C (second compound 0.316 µM, first compound 10 µM): 129%
viability, T/C [13]: 103%
viability, T/C [14]: 112%
viability, T/C [15]: 125%
viability, T/C [16]: 133%
viability, T/C (second compound 1 µM, first compound 3.16 µM): 193%
viability, T/C (second compound 1 µM, first compound 10 µM): 113%
viability, T/C [17]: 107%
viability, T/C [18]: 124%
viability, T/C [19]: 138%
viability, T/C [20]: 127%
viability, T/C (second compound 3.16 µM, first compound 3.16 µM): 153%
viability, T/C (second compound 3.16 µM, first compound 10 µM): 114%
viability, T/C [21]: 125%
viability, T/C [22]: 138%
viability, T/C [23]: 166%
viability, T/C [24]: 154%
viability, T/C (second compound 10 µM, first compound 3.16 µM): 166%
viability, T/C (second compound 10 µM, first compound 10 µM): 96.7%
